Data on six compounds can be found in ChEMBL document CHEMBL1201862, “PubChem BioAssay data set” (2004).

Assay [1] is described as follows: A Cell Based Assay for the Identification of Probe candidate Compounds with Anti- Venezuelan Equine Encephalitis virus. [Related pubchem assays: 2409, 2419, 1621, 2238, 2405, 2024, 2065, 2402, 2414, 1635, 1650, 2244 ]. The class given is functional.
In assay [2] the test system is Vero. Briefly: Vero cell viability after compound exposure – synthesized analogs, set II, cytotoxicity control for West Nile virus antiviral project, SAR follow-up (AID 2402). Format: functional. Particulars: Chlorocebus sabaeus.
Assay [3] relates to Vero. The experiment in a line: Vero 76 cell viability after compound exposure – Vero 76 cells, synthesized analogs, cytotoxicity control for West Nile virus antiviral project, SAR follow-up (AID 2414). The conditions noted are these: Chlorocebus sabaeus. Format: functional.
A short description of assay [4]: SNU-C1 cell viability reduction, dose response, CellTiter-Glo luminescence (AID 1117323). Format: functional, cell-based. Background: Cellular ATP, detected with luciferase, serves as a proxy for viable cell number.
Assay [5] in a line: Reduced DLD-1 viability, concentration-response, CellTiter-Glo luminescence (AID 1117352). Format: functional.
The nature of assay [6]: HCT116 cell viability decrease, GSK3B pretreatment – CellTiter-Glo, IC50, dose response (AID 1117339). The class given is functional. Particulars: HCT-116.
Assay [7] in a line: cytotoxicity toward HCT116 cells – cell-based, CellTiter-Glo luminescence, IC50, dose response (AID 1117332). The class given is functional. The conditions noted are these: HCT-116.
Assay [8] in a line: cytotoxicity toward HT-29 cells – cell-based, CellTiter-Glo luminescence, IC50, dose response (AID 1117330). The class given is functional.
Assay [9] is described as follows: CellTiter-Glo luminescence survival assay, SW480 colon tumor line, concentration-response curve, half-maximal inhibitory concentration (AID 1117338). The class given is functional.
Assay [10] in a line: cytotoxicity toward Colo320 cells – cell-based, CellTiter-Glo luminescence, IC50, dose response (AID 1117334). Format: functional. The conditions noted are these: COLO 320.
The nature of assay [11]: RKO cell viability reduction, dose response, CellTiter-Glo luminescence (AID 1117322). Format: functional.
Assay [12] deals with T1, Bcl-2-related protein A1 (Mus musculus, UniProt Q07440).
T1 sequence (Q07440 whole entry): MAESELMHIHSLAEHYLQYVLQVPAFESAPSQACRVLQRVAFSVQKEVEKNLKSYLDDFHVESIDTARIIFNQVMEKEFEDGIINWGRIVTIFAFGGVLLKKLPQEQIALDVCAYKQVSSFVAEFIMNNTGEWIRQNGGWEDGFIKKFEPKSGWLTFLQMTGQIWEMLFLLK
Briefly: small-molecule antagonists of Bfl-1/BH3 interaction – biochemical, TR-FRET, mouse Bfl-1, confirmation (AID 621).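 Note: TR-FRET binding of GST-Bfl-1 to FITC-labelled Bid peptide via terbium antibody.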 For orientation: In TR-FRET formats the signal depends on donor and acceptor labels being close together.

Assay [13] addresses Glyceraldehyde-3-phosphate dehydrogenase (Homo sapiens, UniProt P04406).
Assay [14] concerns the target T1, Bcl-2-related protein A1. Briefly: Bfl-1 binding inhibitors, SAR follow-up, biochemical, fluorescence polarization (AID 1070). On the technique in general: Fluorescence polarisation rises when a labelled molecule tumbles more slowly, as on binding a larger partner.
The target of assay [15] is Sphingosine 1-phosphate receptor 2 (Homo sapiens, UniProt O95136). Briefly: Dose Response Cell Based Assay for Agonists of the S1P2 Receptor. [Related pubchem assays: 729, 736, 843 ]. Format: functional.
Sequence of Sphingosine 1-phosphate receptor 2 (O95136 whole entry): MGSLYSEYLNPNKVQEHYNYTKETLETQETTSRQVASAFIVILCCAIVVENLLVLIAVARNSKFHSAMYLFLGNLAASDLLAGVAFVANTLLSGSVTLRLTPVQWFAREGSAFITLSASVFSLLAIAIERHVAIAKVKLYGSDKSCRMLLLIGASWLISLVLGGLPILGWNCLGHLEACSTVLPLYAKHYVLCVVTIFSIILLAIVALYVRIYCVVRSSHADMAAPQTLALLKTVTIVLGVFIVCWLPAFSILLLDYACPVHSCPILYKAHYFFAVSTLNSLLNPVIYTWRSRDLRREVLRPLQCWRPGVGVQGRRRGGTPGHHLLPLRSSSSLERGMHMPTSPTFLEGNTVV
Assay [16] deals with T2, Aminopeptidase N (Plasmodium falciparum FcB1/Columbia, UniProt O96935).
T2 sequence (O96935 whole entry): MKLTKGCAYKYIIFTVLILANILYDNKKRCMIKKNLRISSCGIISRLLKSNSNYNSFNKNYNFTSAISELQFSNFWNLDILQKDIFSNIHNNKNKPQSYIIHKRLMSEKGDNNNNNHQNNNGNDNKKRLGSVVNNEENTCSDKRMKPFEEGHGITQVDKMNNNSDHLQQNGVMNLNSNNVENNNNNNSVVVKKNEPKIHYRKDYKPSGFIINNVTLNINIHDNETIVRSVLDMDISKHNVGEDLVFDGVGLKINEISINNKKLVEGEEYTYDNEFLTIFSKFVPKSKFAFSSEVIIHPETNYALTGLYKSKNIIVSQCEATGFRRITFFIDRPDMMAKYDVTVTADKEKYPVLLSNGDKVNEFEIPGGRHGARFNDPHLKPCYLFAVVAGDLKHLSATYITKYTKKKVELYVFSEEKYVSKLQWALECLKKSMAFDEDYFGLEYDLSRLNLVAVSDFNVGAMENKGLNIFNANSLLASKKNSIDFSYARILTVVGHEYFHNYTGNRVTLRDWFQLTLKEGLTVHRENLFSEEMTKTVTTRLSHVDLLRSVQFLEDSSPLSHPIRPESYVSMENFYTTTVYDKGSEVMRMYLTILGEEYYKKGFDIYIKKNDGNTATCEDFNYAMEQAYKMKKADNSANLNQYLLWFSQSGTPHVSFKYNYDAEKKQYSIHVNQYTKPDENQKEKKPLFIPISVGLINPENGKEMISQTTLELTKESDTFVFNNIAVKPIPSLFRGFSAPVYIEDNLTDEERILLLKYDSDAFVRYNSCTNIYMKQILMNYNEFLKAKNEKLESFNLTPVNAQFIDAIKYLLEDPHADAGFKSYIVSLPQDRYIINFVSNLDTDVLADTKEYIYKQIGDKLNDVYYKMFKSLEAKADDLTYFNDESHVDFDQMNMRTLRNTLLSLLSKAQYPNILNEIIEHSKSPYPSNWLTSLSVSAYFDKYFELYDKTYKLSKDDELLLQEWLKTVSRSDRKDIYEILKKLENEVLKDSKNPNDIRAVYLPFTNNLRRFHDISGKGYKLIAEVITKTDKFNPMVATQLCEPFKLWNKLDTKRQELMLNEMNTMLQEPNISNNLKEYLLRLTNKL
Briefly: malaria alanyl aminopeptidase activity blockers – biochemical, fluorogenic H-Leu-NHMec substrate, 1536-well (AID 1445). Also noted: species or system Plasmodium falciparum 3D7, 3D7.

Assay [17] can be described thus: microbe, parasite or virus in culture. The class given is functional. The conditions noted are these: Mycobacterium tuberculosis.
Assay [18] can be described thus: M. tuberculosis growth inhibition, HTS (AID 449762). Format: functional.
Assay [19] can be described thus: Luminescence Cell-Based Dose Response HTS to Identify Inhibitors of 5'UTR Stem-Loop Driven Prion Protein mRNA Translation in H4 Neuroglioblastoma Cells. [Related pubchem assays: 1827 (Project Summary), 1813 (Primary HTS)]. Format: functional.
Assay [20] can be described thus: HIV-1 Vif–A3G interaction blockers – biochemical, TR-FRET, GST-Vif 1-94, biotin-A3G peptide, dose response retest, primary screen (AID 1117319).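 Note: TR-FRET signal of purified GST-Vif binding a biotinylated A3G peptide; inhibitors lower the FRET signal by blocking Vif and A3G binding.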 The class given is functional.
A short description of assay [21]: HIV-1 AD8 envelope cell-cell fusion blockers – cherry-pick, dose response (AID 652062).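 Note: luciferase signal from cell-cell fusion driven by HIV-1 clade B AD8 Env; potency is for inhibitors of fusion seen as a drop in luminescence.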 Format: functional, cell-based.
Assay [22] can be described thus: alpha-synuclein stem-loop luciferase translation blockers – H4 neuroglioma cells, luminescence, confirmation (AID 1988). Format: functional, cell-based.
The nature of assay [23]: luciferase reporter signal suppression in cells – H4 neuroglioma cells, luminescence, dose response (AID 1990). The class given is functional, cell-based.
Assay [24] can be described thus: blockers of HIV-1 envelope-mediated cell-cell fusion – cherry-pick, dose response (AID 652057). The class given is functional, cell-based.
The nature of assay [25]: off-target signal loss in HeLa-CEM21 co-culture – HeLa F-luc CTL cells, cherry-picked, counter-screen for HIV-1 Env fusion inhibitor project, dose response (AID 652040).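 Note: potency for signal decrease marking cytotoxic or nonspecific inhibition.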 Format: functional, cell-based.

Each structure is given as a SMILES string. Activity calls are given as the source filed them.

Sequence of Glyceraldehyde-3-phosphate dehydrogenase (P04406 whole entry): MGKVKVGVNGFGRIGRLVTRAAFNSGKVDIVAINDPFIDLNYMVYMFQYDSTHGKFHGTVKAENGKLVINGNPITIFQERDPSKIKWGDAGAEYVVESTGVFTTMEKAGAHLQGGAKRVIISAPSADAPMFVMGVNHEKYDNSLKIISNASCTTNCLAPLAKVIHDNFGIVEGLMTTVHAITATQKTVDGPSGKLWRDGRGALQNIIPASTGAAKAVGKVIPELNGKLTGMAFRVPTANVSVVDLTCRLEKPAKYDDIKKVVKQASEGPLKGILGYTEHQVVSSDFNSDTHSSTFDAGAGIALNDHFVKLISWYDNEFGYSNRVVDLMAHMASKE

By IC50 is commonly meant the midpoint of a concentration-inhibition curve. Regarding `COc1cccc2c(=O)n(-c3ccccc3)c(SCC(=O)Nc3ccc4c(c3)CCC4)nc12`, the IC50 in assay [1] was < 260 nM (active). The CC50 in assay [2] was > 200 µM (active); in assay [3], < 260 nM (active).
Turning to `CO[C@H]1O[C@@H]2O[C@@]3(C)CC[C@H]4[C@H](C)CC[C@@H]([C@@H]1C)[C@@]24OO3`, the IC50 in assay [4], in assay [5], in [6], in assay [7], in assay [8] and in assay [9] was > 20 µM (inactive) in each case. The IC50 in [10] and in assay [11] was > 20 µM (inactive) each time.
Consider `O=C1C(Cl)=C(Nc2ccc(F)cc2)C(=O)N1c1ccc(Cl)c(Cl)c1`, for which the IC50 was 96.5 µM (active) in assay [12], > 100 µM (not active) in assay [13] and > 100 µM (not active) in assay [14].
As usually defined, the EC50 is the concentration at which the effect is half-maximal. With `O=C(Nc1ccccn1)Nc1cccs1`, the EC50 in assay [15] is given as > 50 µM (not active). The IC50 in [16] was 61.8 µM (active).
As to `CN1CCN(c2ccc(C(=O)c3cn(-c4ccc(F)c(Cl)c4)nn3)cc2)CC1`, in [17], the CC50 was 15 µM (active). Moreover, the IC50 in assay [18] is > 100 µM (active).
What is called AC50 is the concentration at which the activity in the assay is half-maximal. As to `Cn1c(-c2ccc(Cl)cc2)ccc(C#N)c1=O`, the EC50 in assay [19] was > 120 µM (not active); in [22] it was > 120 µM (not active); in assay [23] it was 8.33 µM (active). For the same compound, the IC50 in assay [20] was > 100 µM (active). The AC50 is 68.9 µM (active) in [21], 2.46 µM (active) in assay [24] and 2.62 µM (active) in [25].
